Measurements as given in US20260217732A1, “WRN INHIBITOR” (SUZHOU PUHE BIOPHARMA CO., LTD., priority 2022, published 2026).
Read-outs that look alike come from different tables or passages of the source. One block for each compound: values may come before it.

Key:
WRN enzyme = target: T1, WRN enzyme (Homo sapiens, UniProt Q14191); assay: WRN helicase hydrolysis (unwinding) of double-stranded DNA, fluorescence assay; type: biochemical; settings: 30 min pre-incubation, 60 min reaction
T1 construct: 10 μL (2×) of WRN enzyme solution was added
Description: • The molecules of the present disclosure were tested for their activities on the WRN helicase hydrolysis of double-stranded DNA (Table 1).
A working solution to be tested and a buffer were prepared. The compound to be tested was dissolved in DMSO and subjected to 4× dilution (with 10 μM final concentration as the starting concentration). 0.2 μL of the solution of the compound to be tested was added to the 384-well plate and 10 μL (2×) of WRN enzyme solution was added. The solution was incubated in the dark for 30 minutes. Then, 10 μL of a substrate detection solution containing double-stranded DNA was added to initiate the reaction (the DNA has a length of 19 bp, and labeled with TAMRA and BHQ2 at 3′ and 5′-ends, respectively). The solution was incubated at room temperature for 60 minutes. The inhibitory activities (IC50) against WRN enzyme were calculated based on the change of Ex530/Em590 in the blank group (DMSO) and the compound group.

[1] = tested on: SW48 colorectal cancer cells; assay: 2D antiproliferation on MSI-H SW48 cells, CTG, 5 days; type: cell-based; settings: for IC50 / inhibition at 38.15 pM / inhibition at 0.000152588 µM / inhibition at 0.000610352 µM / inhibition at 0.00976562 µM / inhibition at 0.0390625 µM / inhibition at 0.15625 µM / inhibition at 0.625 µM / inhibition at […] / inhibition at 10 µM: Homo sapiens; for IC50: 120 h, SW48 MSI-H, 5 days; for inhibition at 38.15 pM: SW48, 0.038146973 nM; for inhibition at 0.000152588 µM: SW48, 0.152587891 nM; for inhibition at 0.000610352 µM: SW48, 0.610351563 nM; for inhibition at 0.00976562 µM: SW48, 9.765625 nM; for inhibition at 0.0390625 µM: SW48, 39.0625 nM; for inhibition at 0.15625 µM: SW48, 156.25 nM; for inhibition at 0.625 µM: SW48, 625 nM; for inhibition at […]: SW48, 2500 nM; for inhibition at 10 µM: SW48, 10000 nM
Description: The molecules of the present disclosure were tested for their anti-proliferative activity on MSI-H tumor cells.
SW48 colorectal cancer cells with MSI were cultured in a RMI1640 medium containing 10% FBS and 1% penicillin-streptomycin, and the mixture was cultured in a 37° C., 5% CO2 incubator. 40 μL of cell suspension was added to each well of a 384-well microplate. […] of compounds with different concentrations were added to each well using Echo, and the mixtures were cultured in a 37° C., 5% CO2 incubator for 5 days. 40 μL of CTG solution (Promega, Cat No. G7573) was added to each well and incubated in a 37° C., 5% CO2 incubator in the dark for 30 minutes. The luminescence value was read using an Envision multi-function microplate reader (Perkin Elmer, catalog number Envision 2104). The optical signal is proportional to the amount of ATP in the system, while the ATP content directly characterizes the number of viable cells in the system.

[2] = tested on: HT-29 colorectal cancer cells; assay: 2D antiproliferation on MSS HT-29 cells, CTG, 5 days; type: cell-based; settings: Homo sapiens, 120 h, HT-29 MSS
Description: The molecules of the invention were tested for their anti-proliferative activities on MSS tumor cells.
HT-29 colorectal cancer cells with MSS were cultured in a McCoy's 5A medium containing 10% FBS and 1% penicillin-streptomycin in a 37° C., 5% CO2 constant temperature incubator. 40 μL of cell suspension was added to each well of a 384-well microplate. […] of compounds with different concentrations were added to each well using Echo. The mixtures were cultured in a 37° C., 5% CO2 constant temperature incubator for 5 days. 40 μL of CTG solution (Promega, Cat No. G7573) was added to each well, and the mixture was incubated in a 37° C., 5% CO2 constant temperature incubator for 30 minutes in the dark. The luminescence value was read using an Envision multi-function microplate reader (Perkin Elmer, catalog number Envision 2104). The optical signal is proportional to the amount of ATP in the system, while the ATP content directly characterizes the number of viable cells in the system.

[3] = tested on: SW48 (MSI-H) colorectal cancer tumor cells; assay: In vivo efficacy, SW48 xenograft in nude mice; parameters: species or system BALB/c nude mice; settings: QD, oral; for TGI: 21 days; for Tumor Volume D 1: day 1; for Tumor volume D 21: day 21
Description: In vivo efficacy experiment in BALB/C nude mice. Details are as follows:
SW48 (MSI-H) colorectal cancer tumor cells were cultured (in an L15 medium with 10% fetal bovine serum), and inoculated into 6-8 week old female BALB/c nude mice (with body weight of about 20 g). All the mice were inoculated subcutaneously. The mice were raised in an SPF-grade experimental environment, and all the mice were free to take commercially certified standard diets. When the tumors grew to an average volume of about 160 mm^3 in mice, the test compound was orally administered daily. […] The tumor volume was measured with a two-dimensional caliper three times a week, and the animals were weighed every day. […] The volume calculation formula is: V=1/2a*b^2, where a represents the long diameter of the tumor and b represents the short diameter of the tumor.

[4] = female, CD1, mouse, in vivo
Description: (§1) Mouse Pharmacokinetic Evaluation Experiment
(§2) CD1 female mice were used as test animals to be administered orally/intravenously (with oral dosage of 10 mg/kg or intravenous dosage of 2 mg/kg).
(§3) Experimental scheme: The oral administration group comprised 3 mice per group (Solvent: 10% Hβ-CD-pH7.4), and the intravenous group comprised 3 mice per group. […] The blood concentration in the plasma of mice was determined using the LC/MS/MS method after the oral or intravenous administration, respectively, and the collected data were calculated using the AB Sciex QTRAP 6500 software.

in vivo = settings: female, CD1, mouse
Description: as §1, §2, §3

[5] = read-out: Average Value/Inhibition Rate
[6] = read-out: Test 1/Inhibition Rate
[7] = read-out: Test 2/Inhibition Rate

T1 sequence (Q14191 whole entry): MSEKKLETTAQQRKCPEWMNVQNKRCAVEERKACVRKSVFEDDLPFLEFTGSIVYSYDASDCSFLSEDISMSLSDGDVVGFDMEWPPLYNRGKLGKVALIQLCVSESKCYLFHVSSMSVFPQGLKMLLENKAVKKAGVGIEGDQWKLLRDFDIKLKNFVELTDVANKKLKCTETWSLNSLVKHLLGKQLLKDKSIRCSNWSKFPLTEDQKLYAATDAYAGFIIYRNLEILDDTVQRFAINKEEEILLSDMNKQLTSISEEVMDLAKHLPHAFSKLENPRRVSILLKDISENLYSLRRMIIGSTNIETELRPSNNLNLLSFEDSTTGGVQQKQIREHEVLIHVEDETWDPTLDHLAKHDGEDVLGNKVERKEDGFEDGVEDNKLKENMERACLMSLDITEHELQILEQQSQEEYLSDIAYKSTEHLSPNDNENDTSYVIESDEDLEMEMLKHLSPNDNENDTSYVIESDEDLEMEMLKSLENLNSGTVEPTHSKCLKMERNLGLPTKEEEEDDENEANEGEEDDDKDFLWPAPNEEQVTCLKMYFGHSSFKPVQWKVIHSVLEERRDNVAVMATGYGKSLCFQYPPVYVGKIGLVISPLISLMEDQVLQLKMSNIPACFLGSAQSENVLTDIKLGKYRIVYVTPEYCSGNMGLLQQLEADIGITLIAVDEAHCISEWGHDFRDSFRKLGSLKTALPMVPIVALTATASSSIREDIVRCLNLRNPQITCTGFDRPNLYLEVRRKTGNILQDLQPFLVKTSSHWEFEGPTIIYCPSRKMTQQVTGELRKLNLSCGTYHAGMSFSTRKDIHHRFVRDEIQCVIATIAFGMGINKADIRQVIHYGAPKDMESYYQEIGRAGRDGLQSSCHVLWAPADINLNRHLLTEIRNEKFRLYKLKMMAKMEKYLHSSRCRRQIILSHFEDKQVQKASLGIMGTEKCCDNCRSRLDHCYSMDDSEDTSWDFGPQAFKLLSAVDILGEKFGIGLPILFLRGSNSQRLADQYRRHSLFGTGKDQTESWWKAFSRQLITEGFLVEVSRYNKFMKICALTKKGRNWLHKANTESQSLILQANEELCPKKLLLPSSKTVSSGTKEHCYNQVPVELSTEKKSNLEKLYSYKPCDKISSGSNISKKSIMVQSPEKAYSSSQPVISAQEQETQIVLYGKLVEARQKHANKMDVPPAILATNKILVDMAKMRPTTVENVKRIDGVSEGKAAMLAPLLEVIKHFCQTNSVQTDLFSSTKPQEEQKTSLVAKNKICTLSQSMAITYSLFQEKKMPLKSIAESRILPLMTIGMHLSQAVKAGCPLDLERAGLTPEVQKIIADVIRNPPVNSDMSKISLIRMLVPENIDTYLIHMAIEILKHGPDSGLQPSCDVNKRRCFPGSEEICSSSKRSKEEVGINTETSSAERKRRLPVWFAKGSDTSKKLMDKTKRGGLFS

IC50 (WRN enzyme): 1.4 nM | IC50 [1]: 39 nM | IC50 [2]: > 10 µM
Structure (SMILES): CCc1c(N2CCN(C(=O)c3ncnc(C)c3O)CC2)c(=O)n2nc(-c3cc4c(s3)COC4)nc2n1CC(=O)Nc1ccc(C(F)(F)F)cc1Cl [P7]
inhibitory activity on SW48 cells ([1]; 39 nM): high inhibitory activity | inhibition at 38.15 pM [1, 5]: 6.64% | inhibition at 38.15 pM [1, 6]: 2.01% | inhibition at 38.15 pM [1, 7]: 11.3% | inhibition at 0.000152588 µM [1, 5]: 3.66% | inhibition at 0.000152588 µM [1, 6]: -6.35% | inhibition at 0.000152588 µM [1, 7]: 13.7% | inhibition at 0.000610352 µM [1, 5]: 4.19% | inhibition at 0.000610352 µM [1, 6]: -2.7% | inhibition at 0.000610352 µM [1, 7]: 11.1% | inhibition at 0.00976562 µM [1, 5]: 2.23% | inhibition at 0.00976562 µM [1, 6]: -0.534% | inhibition at 0.00976562 µM [1, 7]: 4.98% | inhibition at 0.0390625 µM [1, 5]: 54.8% | inhibition at 0.0390625 µM [1, 6]: 56% | inhibition at 0.0390625 µM [1, 7]: 53.6% | inhibition at 0.15625 µM [1, 5]: 99% | inhibition at 0.15625 µM [1, 6]: 98.8% | inhibition at 0.15625 µM [1, 7]: 99.2% | inhibition at 0.625 µM [1, 5]: 100% | inhibition at 0.625 µM [1, 6]: 100% | inhibition at 0.625 µM [1, 7]: 100% | inhibition at […] [1, 5]: 101% | inhibition at […] [1, 6]: 101% | inhibition at 10 µM [1, 5]: 101% | inhibition at 10 µM [1, 6]: 101% | inhibition at 10 µM [1, 7]: 101% | TGI ([3]; 20 mg/kg): 82% | Tumor Volume D 1 ([3]; 20 mg/kg): 158 mm^3 | Tumor volume D 21 ([3]; 20 mg/kg): 491 mm^3 | TGI ([3]; 50 mg/kg): 105% | Tumor Volume D 1 ([3]; 50 mg/kg): 158 mm^3 | Tumor volume D 21 ([3]; 50 mg/kg): 71 mm^3 | TGI ([3]; 120 mg/kg): 105% | Tumor Volume D 1 ([3]; 120 mg/kg): 174 mm^3 | Tumor volume D 21 ([3]; 120 mg/kg): 24 mm^3

IC50 (WRN enzyme): 1.2 nM | IC50 [1]: 54 nM | IC50 [2]: > 10 µM | F [4]: 25% | AUC(0-t) (in vivo; iv, 2 mg/kg): 1230 ng·h/mL | C0 (in vivo; iv, 2 mg/kg): 2840 ng/mL | clearance (in vivo; iv, 2 mg/kg): 27 mL/min/kg | half-life (in vivo; iv, 2 mg/kg): 54 min | AUC(0-t) (in vivo; po, 10 mg/kg): 1520 ng·h/mL | Cmax (in vivo; po, 10 mg/kg): 695 ng/mL | Tmax (in vivo; po, 10 mg/kg): 1 h | half-life (in vivo; po, 10 mg/kg): 84 min
Structure (SMILES): CCc1c(N2CCN(C(=O)c3ncccc3O)CC2)c(=O)n2nc(-c3ccc(CO)s3)nc2n1CC(=O)Nc1ccc(C(F)(F)F)cc1Cl [P9]
